This is an account of results in ChEMBL document CHEMBL1154570, “HIV-inhibitory cembrane derivatives from a Philippines collection of the soft coral Lobophytum species” (J Nat Prod, 2000).

For orientation: EC50 means the concentration needed to bring the measured effect to its halfway point. By IC50 is commonly meant the point on the concentration scale where inhibition reaches its midpoint.

Assay [1] concerns Human immunodeficiency virus 1. The assay is described as follows: Antiviral activity against HIV1 assessed as inhibition of cytopathic effect by cell based XTT assay. The class given is functional, organism-based. In general terms: Protection from cytopathic effect is a common read-out in antiviral testing.
Assay [2] deals with Human immunodeficiency virus 1. The assay is described as follows: Antiviral activity against HIV1 assessed as cellular protection by cell based XTT assay. The class given is functional. (Tetrazolium assays rely on reduction of a dye to a coloured formazan, in cell work by metabolically active cells.)

Values after ≈ are worked out from the molar mass of the structure shown.

`C/C1=C\[C@@H]2OC(=O)[C@@H](CN(C)C)[C@@H]2CC/C(C)=C/CC/C(C(=O)O)=C/CC1`: in assay [1], the EC50 is 3.3 µg/mL (≈ 8.79 µM) and the IC50 stood at 10.2 µg/mL (≈ 27.2 µM). Also, in assay [2], the Activity is recorded as 55%.

Take `C=C1C(=O)O[C@H]2/C=C(\C)CC/C=C(\C(=O)O)CC/C=C(\C)CC[C@@H]12` [(7Z)-LOBOHEDLEOLIDE]: in assay [1], the EC50 amounted to 4.6 µg/mL (≈ 13.9 µM) and the IC50 was 7.6 µg/mL (≈ 23 µM). Moreover, the Activity in assay [2] is listed as 55%.

On to `C=C1C(=O)O[C@H]2/C=C(\C)CC/C=C(/C(=O)O)CC/C=C(\C)CC[C@@H]12` [LOBOHEDLEOLIDE], for which, in assay [1], the EC50 turned out to be 3.6 µg/mL (≈ 10.9 µM) and the IC50 stood at 9 µg/mL (≈ 27.2 µM). Also, the Activity in assay [2] is on record as 55%.
